Biological target: human FPR2 receptor (Homo sapiens (Human), UniProt P25090)
Experiment: FLIPR Ca+2 response in HEK-Gα16 cells stably expressing the human FPR2 receptor
Type: cell-based
Parameters: FPR2 (% eff): unit not given here
Settings: Table 4; for FPR2 (% eff): value in brackets, given mostly as fraction
Description: FLIPR: HEK-Gα16 cells stably expressing the human FPR2 receptor was utilized. Cells were plated into 384-well poly-D-lysine coated plates at a density of 18,000 cells per well one day prior to use. The growth media was DMEM medium supplemented with 10% fetal bovine serum (FBS), 1% antibiotic-antimycotic, 50 μg/ml hygromycin, and 400 μg/ml geneticin. On the day of the experiment, the cells were washed twice with Hank's Balanced Salt Solution supplemented with 20 mM HEPES (HBSS/hepes buffer). The cells were then dye loaded with 2 μM Fluo-4 diluted in the HBSS/Hepes buffer and incubated at 37° C. for 40 minutes. Extracellular dye was removed by washing the cell plates four times prior to placing the plates in the FLIPR (Fluorometric Imaging Plate Reader, Molecular Devices). Ligands were diluted in HBSS/Hepes buffer and prepared in 384-well microplates. Data for Ca^+2 responses were obtained in relative fluorescence units.

human FPR2 receptor, sequence (P25090 whole entry): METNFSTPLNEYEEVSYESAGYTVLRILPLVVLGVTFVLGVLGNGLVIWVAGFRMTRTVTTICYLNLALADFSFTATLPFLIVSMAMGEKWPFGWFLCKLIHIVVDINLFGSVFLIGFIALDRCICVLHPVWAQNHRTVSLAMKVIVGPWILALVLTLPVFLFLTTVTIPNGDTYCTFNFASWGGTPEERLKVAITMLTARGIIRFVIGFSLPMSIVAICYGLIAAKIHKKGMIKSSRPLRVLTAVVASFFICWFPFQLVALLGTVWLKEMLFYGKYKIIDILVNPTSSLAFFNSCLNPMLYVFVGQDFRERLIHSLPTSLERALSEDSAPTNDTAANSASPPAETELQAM

Compound	FPR2 (% eff)	EC50 [nM]
O=C(O)[C@@H]1C2CCC([C@@H]1C(=O)Nc1ccc(Br)cc1)C21CC1 (relative stereo) [Compound 14, rel-(2R,3S)-3-[(4-bromophenyl)carbamoyl]spiro [bicyclo[2.2.1]heptane-7,1′-cyclopropane]-2-carboxylic acid]	0.90	–
O=C(Nc1ccc(Br)cc1)[C@@H]1C2CCC([C@@H]1C(=O)O)C21CC1 (single isomer, unassigned) [Compound 44]	0.98	< 1
NC(=O)C1C(C(=O)Nc2ccc(Br)cc2)C2CCC1C21CC1 (single isomer, unassigned; (-)) [Compound 45, (−) N-(4-bromophenyl)spiro[bicyclo [2.2.1]heptane-7,1′-cyclopropane]-2,3-dicarboxamide]	0.91	< 1
O=C(O)CNC(=O)[C@H](Cc1c[nH]c2ccccc12)NC(=O)Nc1ccc(Br)cc1 (stereo in doubt) [Compound 150, {[2-{[(4-bromophenyl)carbamoyl]amino}-3-(1H-indol-3-yl)propanoyl]amino}acetic acid]	98	1.4
CCC1(CCc2ccccc2)NC(=O)N(NC(=O)Nc2ccc(Br)cc2)C1=O (stereo not drawn) [Compound 1, 1-(4-bromophenyl)-3-[4-ethyl-2,5-dioxo-4-(2-phenylethyl)imidazolidin-1-yl]urea]	0.96	–
CCC[C@H](NC(=O)Nc1ccc(Br)cc1)C(=O)NCC(=O)O [Compound 2, {[(2S)-2-{[(4-bromophenyl)carbamoyl]amino}pentanoyl]amino}acetic acid]	0.91	–
CC[C@H](C)[C@H](NC(=O)Nc1ccc(Br)cc1F)C(=O)O [Compound 5, (2S,3S)-2-{[(4-bromo-2-fluorophenyl)carbamoyl]amino}-3-methylpentanoic acid]	0.96	–
CC(C)C[C@H](NC(=O)Nc1ccc(Br)cc1)C(=O)NC(C)(C)C(=O)O [Compound 6, 2-{[(2S)-2-{[(4-bromophenyl)carbamoyl]amino}-4-methylpentanoyl]amino}-2-methylpropanoic acid]	0.91	–
CC(C)C[C@H](NC(=O)Nc1ccc(Br)cc1)C(=O)O [Compound 9, (2S)-2-{[(4-bromophenyl)carbamoyl]amino}-4-methylpentanoic acid]	0.77	–
O=C(Nc1ccc(Br)cc1)NC(Cc1ccccc1)C(=O)NC1CCCCNC1=O (stereo not drawn) [Compound 10, 2-{[(4-bromophenyl)carbamoyl]amino}-N-(2-oxoazepan-3-yl)-3-phenylpropanamide]	0.89	–
O=C(O)C1C(C(=O)Nc2ccc(I)cc2)C2C=CC1C21CC1 (stereo not drawn) [Compound 11, 3-[(4-iodophenyl)carbamoyl]spiro [bicyclo[2.2.1]heptane-7,1′-cyclopropane]-5-ene-2-carboxylic acid]	1.00	–
O=C(O)C1C(C(=O)Nc2ccc(Br)cc2)C2C=CC1C21CC1 (stereo not drawn) [Compound 12, 3-[(4-bromophenyl)carbamoyl]spiro [bicyclo[2.2.1]heptane-7,1′-cyclopropane]-5-ene-2-carboxylic acid]	0.97	–
CC(=O)c1ccc(NC(=O)Nc2ccc3c(c2)C(=O)N(CCc2c[nH]cn2)C(c2ccc(C#N)cc2)C3)cc1 (stereo not drawn) [Compound 13, 1-(4-acetylphenyl)-3-{3-(4-cyanophenyl)-2-[2-(1H-imidazol-4-yl)ethyl]-1-oxo-1,2,3,4-tetrahydroisoquinolin-7-yl}urea]	0.80	–
O=C(O)C1C(C(=O)Nc2ccc(I)cc2)C2CCC1C21CC1 (stereo not drawn) [Compound 15, 3-[(4-iodophenyl)carbamoyl]spiro [bicyclo[2.2.1]heptane-7,1′-cyclopropane]-2-carboxylic acid]	0.87	–
CSc1ccc(NC(=O)Nc2ccc3c(c2)C(=O)N(CCCN)C(c2ccc(C#N)cc2)C3)cc1 (stereo not drawn) [Compound 16, 1-[2-(3-aminopropyl)-3-(4-cyanophenyl)-1-oxo-1,2,3,4-tetrahydroisoquinolin-7-yl]-3-[4-(methylsulfanyl)phenyl]urea]	0.70	–
CSc1ccc(NC(=O)Nc2ccc3c(c2)C(=O)N(CCc2c[nH]cn2)C(c2ccc(C#N)cc2)C3)cc1 (stereo not drawn) [Compound 17, 1-{3-(4-cyanophenyl)-2-[2-(1H-imidazol-4-yl)ethyl]-1-oxo-1,2,3,4-tetrahydroisoquinolin-7-yl}-3-[4-(methylsulfanyl)phenyl]urea]	0.92	–

Compound	FPR2 (% eff)	EC50 [nM]
CS(=O)(=O)c1ccc(NC(=O)Nc2ccc3c(c2)C(=O)N(CCCN)C(c2ccc(C#N)cc2)C3)cc1 (stereo not drawn) [Compound 18, 1-[2-(3-aminopropyl)-3-(4-cyanophenyl)-1-oxo-1,2,3,4-tetrahydroisoquinolin-7-yl]-3-[4-(methylsulfonyl)phenyl]urea]	0.86	–
CS(=O)(=O)c1ccc(NC(=O)Nc2ccc3c(c2)C(=O)N(CCc2c[nH]cn2)C(c2ccc(C#N)cc2)C3)cc1 (stereo not drawn) [Compound 19, 1-{3-(4-cyanophenyl)-2-[2-(1H-imidazol-4-yl)ethyl]-1-oxo-1,2,3,4-tetrahydroisoquinolin-7-yl}-3-[4-(methylsulfonyl)phenyl]urea]	1.00	–
CSc1ccc(NC(=O)Nc2ccc3c(c2)C(=O)N(CCc2c[nH]cn2)C(c2ccco2)C3)cc1 (stereo not drawn) [Compound 23, 1-{3-(furan-2-yl)-2-[2-(1H-imidazol-4-yl)ethyl]-1-oxo-1,2,3,4-tetrahydroisoquinolin-7-yl}-3-[4-(methylsulfanyl)phenyl]urea]	0.83	–
C[S+]([O-])c1ccc(NC(=O)Nc2ccc3c(c2)C(=O)N(CCc2c[nH]cn2)C(c2ccc(F)cn2)C3)cc1 (stereo not drawn) [Compound 24, 1-{3-(5-fluoropyridin-2-yl)-2-[2-(1H-imidazol-4-yl)ethyl]-1-oxo-1,2,3,4-tetrahydroisoquinolin-7-yl}-3-[4-(methylsulfinyl)phenyl]urea]	0.93	–
CS(=O)(=O)c1ccc(NC(=O)Nc2ccc3c(c2)C(=O)N(CCc2c[nH]cn2)C(c2ccc(F)cn2)C3)cc1 (stereo not drawn) [Compound 25, 1-{3-(5-fluoropyridin-2-yl)-2-[2-(1H-imidazol-4-yl)ethyl]-1-oxo-1,2,3,4-tetrahydroisoquinolin-7-yl}-3-[4-(methylsulfonyl)phenyl]urea]	1.0	–
CSc1ccc(NC(=O)Nc2ccc3c(c2)C(=O)N(CCc2c[nH]cn2)C(c2ccc(Cl)o2)C3)cc1 (stereo not drawn) [Compound 27, 1-{3-(5-chlorofuran-2-yl)-2-[2-(1H-imidazol-4-yl)ethyl]-1-oxo-1,2,3,4-tetrahydroisoquinolin-7-yl}-3-[4-(methylsulfanyl)phenyl]urea]	0.81	–
CSc1ccc(NC(=O)Nc2ccc3c(c2)C(=O)N(CCc2c[nH]cn2)C(c2ccc(Cl)nc2)C3)cc1 (stereo not drawn) [Compound 28, 1-{3-(6-chloropyridin-3-yl)-2-[2-(1H-imidazol-4-yl)ethyl]-1-oxo-1,2,3,4-tetrahydroisoquinolin-7-yl}-3-[4-(methylsulfanyl)phenyl]urea]	0.89	–
CSc1ccc(NC(=O)C2C(C(=O)O)C3CCC2C32CC2)cc1 (stereo not drawn) [Compound 29, 3-{[4-(methylsulfanyl)phenyl]carbamoyl}spiro[bicyclo[2.2.1]heptane-7,1′-cyclopropane]-2-carboxylic acid]	0.96	7
NC(=O)C1C(C(=O)Nc2ccc(Br)cc2)C2CCC1C21CC1 (stereo not drawn) [Compound 30, N-(4-bromophenyl)spiro[bicyclo[2.2.1]heptane-7,1′-cyclopropane]-2,3-dicarboxamide]	0.96	–
CSc1ccc(NC(=O)Nc2ccc3c(c2)C(=O)N(CCc2c[nH]cn2)C(c2ccc(Cl)cn2)C3)cc1 (stereo not drawn) [Compound 32, 1-{3-(5-chloropyridin-2-yl)-2-[2-(1H-imidazol-4-yl)ethyl]-1-oxo-1,2,3,4-tetrahydroisoquinolin-7-yl}-3-[4-(methylsulfanyl)phenyl]urea]	0.91	–
CS(=O)(=O)c1ccc(NC(=O)Nc2ccc3c(c2)C(=O)N(CCc2c[nH]cn2)C(c2ccc(Cl)cn2)C3)cc1 (stereo not drawn) [Compound 33, 1-{3-(5-chloropyridin-2-yl)-2-[2-(1H-imidazol-4-yl)ethyl]-1-oxo-1,2,3,4-tetrahydroisoquinolin-7-yl}-3-[4-(methylsulfonyl)phenyl]urea]	0.99	–
CSc1ccc(NC(=O)Nc2ccc3c(c2)C(=O)N(CCCN)[C@@H](c2ccc(C#N)cc2)C3)cc1 [Compound 36, (+)1-[(3R)-2-(3-aminopropyl)-3-(4-cyanophenyl)-1-oxo-1,2,3,4-tetrahydroisoquinolin-7-yl]-3-[4-(methylsulfanyl)phenyl]urea]	0.97	–
CSc1ccc(NC(=O)C2C(C(N)=O)C3CCC2C3(C)C)cc1 (stereo not drawn) [Compound 37, 7,7-dimethyl-N-[4-(methylsulfanyl)phenyl]bicyclo [2.2.1]heptane-2,3-dicarboxamide]	0.85	–
NC(=O)C1C(C(=O)Nc2ccc(I)cc2)C2CCC1C21CC1 (stereo not drawn) [Compound 38, N-(4-iodophenyl)spiro[bicyclo[2.2.1]heptane-7,1′-cyclopropane]-2,3-dicarboxamide]	0.95	–
NC(=O)C1C(C(=O)Nc2ccc(I)cc2)C2C=CC1C21CC1 (stereo not drawn) [Compound 39, N-(4-iodophenyl)spiro[bicyclo[2.2.1]heptane-7,1′-cyclopropane]-5-ene-2,3-dicarboxamide]	0.90	–
C[S+]([O-])c1ccc(NC(=O)Nc2ccc3c(c2)C(=O)N(CCCNC(=O)OC(C)(C)C)[C@@H](c2ccc(C#N)cc2)C3)cc1 (stereo partly drawn) [Compound 40, (+) tert-butyl {3-[(3R)-3-(4-cyanophenyl)-7-({[4-(methylsulfinyl)phenyl]carbamoyl}amino)-1-oxo-3,4-dihydroisoquinolin-2(1H)-yl]propyl}carbamate]	0.91	–

Reference: patent US10434112B2, “Use of agonists of formyl peptide receptor 2 for treating dermatological diseases” (Allergan, Inc., priority 2013, dated 2019)
